How the values were obtained:
Format in all cases: in vivo
[1] = test system: velvetleaf (Abutilon theophrasti); assay: Test Example 1: foliage treatment of velvetleaf in pots, herbicidal activity; details: emulsifiable concentrate sprayed over the foliage, dosage of 2000 g/ha, 1000 liters per hectare, plants 14 days after seeding, examined after 8 days in greenhouse
[2] = test system: velvetleaf (Abutilon theophrasti); assay: Test Example 3: soil surface treatment, velvetleaf seeded in pots, herbicidal activity; details: emulsifiable concentrate sprayed over the surface of the soil after seeding, dosage of 2000 g/ha, 1000 liters per hectare, examined after 9 days in greenhouse
[3] = test system: barnyardgrass (Echinochloa oryzicola); assay: Test Example 4: flooded paddy field treatment of barnyardgrass in pots, herbicidal activity; details: emulsifiable concentrate applied on the water surface of flooded pots, dosage of 1000 g/ha, 50 liters per are, plants 12 days after seeding, examined after 9 days in greenhouse

Compound: Cc1cc(Cl)c2occ(-n3c(=O)cc(C(F)(F)F)n(C)c3=O)c2c1 [Compound 1-358]
- herbicidal activity: growth of velvetleaf [1]: completely inhibited the growth
- herbicidal activity: germination of velvetleaf [2]: completely inhibited the germination
- herbicidal activity: growth of barnyardgrass [3]: completely inhibited the growth

Compound: O=C1C2=C(CCCC2)C(=O)N1c1noc2ccccc12 [Compound 2-4]
- herbicidal activity: growth of velvetleaf [1]: completely inhibited the growth

Compound: CNc1ccc2occ(-n3c(=O)cc(C(F)(F)F)n(C)c3=O)c2c1 [Compound 1-8]
- herbicidal activity: growth of velvetleaf [1]: completely inhibited the growth
- herbicidal activity: germination of velvetleaf [2]: completely inhibited the germination
- herbicidal activity: growth of barnyardgrass [3]: completely inhibited the growth

Compound: Cn1c(C(F)(F)F)cc(=O)n(-c2coc3ccc(Br)cc23)c1=O [Compound 1-75]
- herbicidal activity: growth of velvetleaf [1]: completely inhibited the growth
- herbicidal activity: germination of velvetleaf [2]: completely inhibited the germination
- herbicidal activity: growth of barnyardgrass [3]: completely inhibited the growth

Compound: Cn1c(C(F)(F)F)cc(=O)n(-c2csc3ccccc23)c1=O [Compound 1-3]
- herbicidal activity: growth of velvetleaf [1]: completely inhibited the growth
- herbicidal activity: germination of velvetleaf [2]: completely inhibited the germination
- herbicidal activity: growth of barnyardgrass [3]: completely inhibited the growth

Compound: Cn1c(C(F)(F)F)cc(=O)n(-c2coc3ccc(Cl)cc23)c1=O [Compound 1-4]
- herbicidal activity: growth of velvetleaf [1]: completely inhibited the growth
- herbicidal activity: germination of velvetleaf [2]: completely inhibited the germination
- herbicidal activity: growth of barnyardgrass [3]: completely inhibited the growth

Compound: Cn1c(C(F)(F)F)cc(=O)n(-c2coc3ccc(NS(C)(=O)=O)cc23)c1=O [Compound 1-10]
- herbicidal activity: growth of velvetleaf [1]: completely inhibited the growth
- herbicidal activity: germination of velvetleaf [2]: completely inhibited the germination
- herbicidal activity: growth of barnyardgrass [3]: completely inhibited the growth

Compound: CCOC(=O)C=Cc1cc(Cl)c2occ(-n3c(=O)cc(C(F)(F)F)n(C)c3=O)c2c1 [Compound 1-378]
- herbicidal activity: growth of velvetleaf [1]: completely inhibited the growth
- herbicidal activity: germination of velvetleaf [2]: completely inhibited the germination
- herbicidal activity: growth of barnyardgrass [3]: completely inhibited the growth

Compound: Cn1c(C(F)(F)F)cc(=O)n(-c2coc3ccccc23)c1=O [Compound 1-1]
- herbicidal activity: growth of velvetleaf [1]: completely inhibited the growth
- herbicidal activity: germination of velvetleaf [2]: completely inhibited the germination
- herbicidal activity: growth of barnyardgrass [3]: completely inhibited the growth

Compound: Cn1c(C(F)(F)F)cc(=O)n(-c2coc3cc(Cl)ccc23)c1=O [Compound 1-861]
- herbicidal activity: growth of velvetleaf [1]: completely inhibited the growth
- herbicidal activity: germination of velvetleaf [2]: completely inhibited the germination
- herbicidal activity: growth of barnyardgrass [3]: completely inhibited the growth

Compound: COc1cc2c(-n3c(=O)cc(C(F)(F)F)n(C)c3=O)coc2cc1Cl [Compound 1-84, 3-(6-Chloro-5-methoxybenzo[b]furan-3-yl)-1-methyl-6-(trifluoromethyl)-1,2,3,4-tetrahydropyrimidine-2,4-dione]
- herbicidal activity: growth of velvetleaf [1]: completely inhibited the growth
- herbicidal activity: germination of velvetleaf [2]: completely inhibited the germination
- herbicidal activity: growth of barnyardgrass [3]: completely inhibited the growth

Compound: CCOC(=O)C(C)Oc1cc2c(-n3c(=O)cc(C(F)(F)F)n(C)c3=O)coc2cc1Cl (stereo not drawn) [Compound 1-129, Ethyl 2-({6-chloro-3-[3-methyl-2,6-dioxo-4-(trifluoromethyl)-1,2,3,6-tetrahydropyrimidin-1-yl]benzo[b]furan-5-yl}oxy)propanoate]
- herbicidal activity: growth of velvetleaf [1]: completely inhibited the growth
- herbicidal activity: germination of velvetleaf [2]: completely inhibited the germination
- herbicidal activity: growth of barnyardgrass [3]: completely inhibited the growth

Compound: CSc1cc2c(-n3c(=O)cc(C(F)(F)F)n(C)c3=O)coc2cc1[N+](=O)[O-] [Compound 1-201, 1-Methyl-3-[5-(methylthio)-6-nitrobenzo[b]furan-3-yl]-6-(trifluoromethyl)-1,2,3,4-tetrahydropyrimidine-2,4-dione]
- herbicidal activity: growth of velvetleaf [1]: completely inhibited the growth
- herbicidal activity: germination of velvetleaf [2]: completely inhibited the germination
- herbicidal activity: growth of barnyardgrass [3]: completely inhibited the growth

Compound: CCOC(=O)C(C)Sc1cc2c(-n3c(=O)cc(C(F)(F)F)n(C)c3=O)coc2cc1[N+](=O)[O-] (stereo not drawn) [Compound 1-246, Ethyl 2-({3-[3-methyl-2,6-dioxo-4-(trifluoromethyl)-1,2,3,6-tetrahydropyrimidin-1-yl]-6-nitrobenzo[b]furan-5-yl}thio)propanoate]
- herbicidal activity: growth of velvetleaf [1]: completely inhibited the growth
- herbicidal activity: germination of velvetleaf [2]: completely inhibited the germination
- herbicidal activity: growth of barnyardgrass [3]: completely inhibited the growth

Compound: Cn1c(C(F)(F)F)cc(=O)n(-c2coc3cc([N+](=O)[O-])ccc23)c1=O [Compound 1-282]
- herbicidal activity: growth of velvetleaf [1]: completely inhibited the growth
- herbicidal activity: germination of velvetleaf [2]: completely inhibited the germination
- herbicidal activity: growth of barnyardgrass [3]: completely inhibited the growth

Compound: Cn1c(C(F)(F)F)cc(=O)n(-c2csc3cc(Cl)ccc23)c1=O [Compound 1-864]
- herbicidal activity: growth of barnyardgrass [3]: completely inhibited the growth

Compound: COC(=O)c1ccc2occ(-n3c(=O)cc(C(F)(F)F)n(C)c3=O)c2c1 [Compound 1-303, Methyl 3-[3-methyl-2,6-dioxo-4-(trifluoromethyl)-1,2,3,6-tetrahydropyrimidin-1-yl]benzo[b]furan-5-carboxylate]
- herbicidal activity: growth of velvetleaf [1]: completely inhibited the growth
- herbicidal activity: germination of velvetleaf [2]: completely inhibited the germination
- herbicidal activity: growth of barnyardgrass [3]: completely inhibited the growth

Compound: CCOC(=O)C(C)Oc1ccc2occ(-n3c(=O)cc(C(F)(F)F)n(C)c3=O)c2c1 (stereo not drawn) [Compound 1-127, Ethyl 2-({3-[3-methyl-2,6-dioxo-4-(trifluoromethyl)-1,2,3,6-tetrahydropyrimidin-1-yl]benzo[b]furan-5-yl}oxy)propanoate]
- herbicidal activity: growth of velvetleaf [1]: completely inhibited the growth
- herbicidal activity: germination of velvetleaf [2]: completely inhibited the germination
- herbicidal activity: growth of barnyardgrass [3]: completely inhibited the growth

Compound: Cc1cc2c(-n3c(=O)cc(C(F)(F)F)n(C)c3=O)coc2cc1[N+](=O)[O-] [Compound 1-361]
- herbicidal activity: growth of velvetleaf [1]: completely inhibited the growth
- herbicidal activity: germination of velvetleaf [2]: completely inhibited the germination
- herbicidal activity: growth of barnyardgrass [3]: completely inhibited the growth

Compound: Cn1c(C(F)(F)F)cc(=O)n(-c2coc3cc([N+](=O)[O-])c(O)cc23)c1=O [Compound 1-82]
- herbicidal activity: growth of velvetleaf [1]: completely inhibited the growth
- herbicidal activity: germination of velvetleaf [2]: completely inhibited the germination
- herbicidal activity: growth of barnyardgrass [3]: completely inhibited the growth

Compound: CC(=O)N(C)c1ccc2occ(-n3c(=O)cc(C(F)(F)F)n(C)c3=O)c2c1 [Compound 1-28]
- herbicidal activity: growth of velvetleaf [1]: completely inhibited the growth
- herbicidal activity: germination of velvetleaf [2]: completely inhibited the germination

Compound: CC(=O)Nc1ccc2occ(-n3c(=O)cc(C(F)(F)F)n(C)c3=O)c2c1 [Compound 1-24]
- herbicidal activity: growth of velvetleaf [1]: completely inhibited the growth
- herbicidal activity: germination of velvetleaf [2]: completely inhibited the germination

From patent US6586368B1, “Condensed heterocylic compounds and herbicides containing them” (Sumitomo Chemical Company, Limited, priority 1998, dated 2003)
